What was measured:
Type in all cases: cell-based, human
HCT-116 cells [1] = experiment: Proliferation inhibition assay of cancer cells (Test Example 1), HCT-116; conditions: read-out: IC50 (μM) HCT, concentration for 50% inhibition of cell proliferation (Bulk IC50 value)
Procedure: (§1) HCT-116 cells (derived from human colon adenocarcinoma), HT-29 cells (derived from human colon cancer), and FaDu cells (derived from human hypopharynx cancer) were obtained from American Type Culture Collection (ATCC). […] After cells were seeded at 300-600 cells/well onto black μClear-plate 384 well (Greiner bio-one Cat. No. 781091), a test substance was added such that the final concentration of DMSO is 0.1%, and cultured for 4 days. […] A test shown in Test example 1 was carried out for compounds obtained in the Examples.

FaDu cells [2] = experiment: Proliferation inhibition assay of cancer cells (Test Example 1), FaDu; conditions: read-out: IC50 (μM) FaDu, concentration for 50% inhibition of cell proliferation (Bulk IC50 value)
Procedure: as §1

FaDu cells [3] = experiment: Inhibition assay of cancer cell sphere-forming ability (Test Example 2), FaDu; conditions: read-out: IC50 (μM) FaDu, concentration for 50% inhibition of cell proliferation (Sphere IC50 value)
Procedure: (§2) HCT-116 cells (derived from human colon adenocarcinoma), HT-29 cells (derived from human colon cancer), FaDu cells (derived from human hypopharynx cancer) were obtained from American Type Culture Collection (ATCC). […] HCT-116 cells, HT-29 cells, and FaDu cells were seeded onto 384 Well Black Clear Bottom Ultra-Low Attachment Microplate (Corning Cat. […] A test substance was added so that the final concentration of DMSO is 0.1%, and then cultured for 4 days. […] A test shown in Test example 2 was carried out for compounds obtained in the Examples.

HT-29 cells [4] = experiment: Inhibition assay of cancer cell sphere-forming ability (Test Example 2), HT-29; conditions: read-out: IC50 (μM) HT, concentration for 50% inhibition of cell proliferation (Sphere IC50 value)
Procedure: as §2

HT-29 cells [5] = experiment: Proliferation inhibition assay of cancer cells (Test Example 1), HT-29; conditions: read-out: IC50 (μM) HT, concentration for 50% inhibition of cell proliferation (Bulk IC50 value)
Procedure: as §1

HCT-116 cells [6] = experiment: Inhibition assay of cancer cell sphere-forming ability (Test Example 2), HCT-116; conditions: read-out: IC50 (μM) HCT, concentration for 50% inhibition of cell proliferation (Sphere IC50 value)
Procedure: as §2

[7] = Homo sapiens, HCT-116, 96 h, HCT-116 cells, cultured for 4 days, Cell Titer-Glo
[8] = Homo sapiens, FaDu, 96 h, FaDu cells, cultured for 4 days, Cell Titer-Glo
[9] = Homo sapiens, FaDu, 96 h, FaDu cells, Ultra-Low Attachment plate, serum-free DMEM/F12 with B27, EGF, bFGF, insulin, 4 days, Cell Titer-Glo
[10] = Homo sapiens, HT-29, 96 h, HT-29 cells, Ultra-Low Attachment plate, serum-free DMEM/F12 with B27, EGF, bFGF, insulin, 4 days, Cell Titer-Glo
[11] = Homo sapiens, HT-29, 96 h, HT-29 cells, cultured for 4 days, Cell Titer-Glo
[12] = Homo sapiens, HCT-116, 96 h, HCT-116 cells, Ultra-Low Attachment plate, serum-free DMEM/F12 with B27, EGF, bFGF, insulin, 4 days, Cell Titer-Glo

Row | IC50 (HCT-116 cells [1]; [7]) [µM] | IC50 (FaDu cells [2]; [8]) [µM] | IC50 (FaDu cells [3]; [9]) [µM] | IC50 (HT-29 cells [4]; [10]) [µM] | IC50 (HT-29 cells [5]; [11]) [µM] | IC50 (HCT-116 cells [6]; [12]) [µM] | SMILES | further results
1 | 0.39 | 0.49 | 0.08 | 0.43 | 0.84 | 0.09 | CC(O)c1cc2c(o1)C(=O)c1ncccc1C2=O (stereo not drawn) [Example 51, 2-(1-hydroxyethyl)furo[3,2-g]quinoline-4,9-dione] | 
2 | 0.53 | 0.6 | 0.1 | 0.61 | > 10 | 0.28 | CCN(Cc1cc2c(o1)C(=O)c1cccnc1C2=O)C(=O)CC(C)C [Example 9, N-[(4,9-dioxo-4,9-dihydrofuro[2,3-g]quinolin-2-yl)methyl]-N-ethyl-3-methylbutanamide] | 
3 | 0.55 | 0.44 | 0.28 | 0.59 | 0.66 | 0.55 | COC(C)c1cc2c(s1)C(=O)c1ncccc1C2=O (stereo not drawn) [Example 38, 2-(1-methoxyethyl)thieno[3,2-g]quinoline-4,9-dione] | 
4 | 0.39 | 0.41 | 0.33 | 0.63 | 0.93 | 0.2 | CCN(CCOC)Cc1cc2c(s1)C(=O)c1cccnc1C2=O [Example 6, 2-{[ethyl(2-methoxyethyl)amino]methyl}thieno[2,3-g]quinoline-4,9-dione] | 
5 | 0.07 | 0.43 | 0.06 | 0.08 | 0.64 | 0.05 | CC(=O)c1cc2c(o1)C(=O)c1sccc1C2=O [Example 52, 2-acetylthieno[3,2-f][1]benzofuran-4,8-dione] | 
6 | 0.47 | 0.47 | 0.17 | 0.58 | 0.59 | 0.26 | CC(=O)c1cc2c(o1)C(=O)c1ncccc1C2=O [Example 50, 2-acetylfuro[3,2-g]quinoline-4,9-dione] | 
7 | 0.57 | 0.46 | 0.34 | 0.63 | 0.68 | 0.55 | O=C1c2cc(CN3CCOCC3)sc2C(=O)c2cccnc21 [Example 4, 2-(morpholin-4-ylmethyl)thieno[2,3-g]quinoline-4,9-dione] | 
8 | 0.06 | 0.08 | 0.06 | 0.49 | 0.62 | 0.06 | CC(O)c1cc2c(s1)C(=O)c1ncccc1C2=O (stereo not drawn) [Example 37, 2-(1-hydroxyethyl)thieno[3,2-g]quinoline-4,9-dione] | 
9 | 0.61 | 0.67 | 0.59 | 0.77 | 2.47 | 0.6 | CC(C)(O)c1cc2c(o1)C(=O)c1sccc1C2=O [Example 54, 2-(2-hydroxypropan-2-yl)thieno[3,2-f][1]benzofuran-4,8-dione] | 
10 | 0.06 | 0.07 | 0.05 | 0.43 | 0.56 | 0.05 | CN(C)C(=O)c1cc2c(s1)C(=O)c1cccnc1C2=O [Example 3, N,N-dimethyl-4,9-dioxo-4,9-dihydrothieno[2,3-g]quinoline-2-carboxamide] | 
11 | 0.5 | 0.5 | 0.09 | 0.53 | 6.14 | 0.38 | CCN(Cc1cc2c(o1)C(=O)c1cccnc1C2=O)S(=O)(=O)CC(C)C [Example 10, N-[(4,9-dioxo-4,9-dihydrofuro[2,3-g]quinolin-2-yl)methyl]-N-ethyl-2-methylpropane-1-sulfonamide] | 

The remaining lines, values behind:

Row | SMILES | IC50 (HCT-116 cells [1]; [7]) [µM] | IC50 (FaDu cells [2]; [8]) [µM] | IC50 (FaDu cells [3]; [9]) [µM] | IC50 (HT-29 cells [4]; [10]) [µM] | IC50 (HT-29 cells [5]; [11]) [µM] | IC50 (HCT-116 cells [6]; [12]) [µM] | further results
12 | C[C@@H]1CN(C(=O)c2cc3c(s2)C(=O)c2nccnc2C3=O)C[C@H](C)O1 [Example 58, 7-{[(2R,6S)-2,6-dimethylmorpholin-4-yl]carbonyl}thieno[2,3-g]quinoxaline-5,9-dione] | 0.64 | 3.71 | 0.76 | 5.97 | 7.06 | 0.56 | 
13 | O=C1c2cc(CN3CCOCC3)sc2C(=O)c2nccnc21 [Example 59, 7-(morpholin-4-ylmethyl)thieno[2,3-g]quinoxaline-5,9-dione] | 0.28 | 0.36 | 0.06 | 0.63 | 0.84 | 0.05 | 
14 | CCOC(c1cc2c(s1)C(=O)c1ccncc1C2=O)C1CC1 (stereo not drawn) [Example 17, 2-[cyclopropyl(ethoxy)methyl]thieno[2,3-g]isoquinoline-4,9-dione] | 0.41 | 0.84 | 0.05 | 0.54 | 0.87 | 0.55 | 
15 | O=C1c2ccncc2C(=O)c2sc(CNCC(F)F)cc21 [Example 35, 2-{[(2,2-Difluoroethyl)amino]methyl}thieno[3,2-g]isoquinoline-4,9-dione] |  |  |  |  |  |  | IC50 (HCT-116 cells [1]; Homo sapiens, HCT-116, 96 h): 0.08 µM; IC50 (FaDu cells [2]; Homo sapiens, FaDu, 96 h): 0.05 µM; IC50 (FaDu cells [3]; Homo sapiens, FaDu, 96 h): 0.04 µM; IC50 (HT-29 cells [4]; Homo sapiens, HT-29, 96 h): 0.39 µM; IC50 (HT-29 cells [5]; Homo sapiens, HT-29, 96 h): 0.6 µM; IC50 (HCT-116 cells [6]; Homo sapiens, HCT-116, 96 h): 0.27 µM
16 | CCN(Cc1cc2c(s1)C(=O)c1ccncc1C2=O)C1CCCCC1 [Example 25, 2-{[Cyclohexyl(ethyl)amino]methyl}thieno[2,3-g]isoquinoline-4,9-dione] | 0.69 | 0.46 | 0.06 | < 0.01 | 0.96 | 0.8 | 
17 | O=C1c2cnccc2C(=O)c2sc(CO)cc21 [Example 14, 2-(1-hydroxymethyl)thieno[2,3-g]isoquinoline-4,9-dione] | 0.06 | 0.03 | 0.02 | 0.09 | 0.48 | 0.09 | 
18 | C#Cc1cc2c(s1)C(=O)c1ccncc1C2=O [Example 61, 2-ethynylthieno[2,3-g]isoquinoline-4,9-dione] | 0.19 | 0.05 | 0.05 | 0.24 | 0.54 | 0.28 | 
19 | CCN(Cc1ccncc1)Cc1cc2c(s1)C(=O)c1cccnc1C2=O [Example 8, 2-{[ethyl(pyridin-4-ylmethyl)amino]methyl}thieno[2,3-g]quinoline-4,9-dione] |  |  |  |  |  |  | IC50 (HCT-116 cells [1]; HCT-116 cells, cultured for 4 days, Cell Titer-Glo): 0.38 µM; IC50 (FaDu cells [2]; FaDu cells, cultured for 4 days, Cell Titer-Glo): 0.37 µM; IC50 (FaDu cells [3]; FaDu cells, Ultra-Low Attachment plate, serum-free DMEM/F12 with B27, EGF, bFGF, insulin, 4 days, Cell Titer-Glo): 0.32 µM; IC50 (HT-29 cells [4]; HT-29 cells, Ultra-Low Attachment plate, serum-free DMEM/F12 with B27, EGF, bFGF, insulin, 4 days, Cell Titer-Glo): 0.6 µM; IC50 (HT-29 cells [5]; HT-29 cells, cultured for 4 days, Cell Titer-Glo): 0.83 µM; IC50 (HCT-116 cells [6]; HCT-116 cells, Ultra-Low Attachment plate, serum-free DMEM/F12 with B27, EGF, bFGF, insulin, 4 days, Cell Titer-Glo): 0.41 µM
20 | O=C1c2cc(C(=O)N3CCOCC3)sc2C(=O)c2nccnc21 [Example 57, 7-(morpholin-4-ylcarbonyl)thieno[2,3-g]quinoxaline-5,9-dione] | 5.71 | 8.21 | 5.65 | > 10 | > 10 | 4.97 | 
